One assay has as its target T1, pig kidney FBPase Y113A (Sus scrofa, UniProt P00636, Y114A).
T1 construct: His6 (C); made in house; host or cells: Escherichia coli BL21 (DE3)
T1 sequence (P00636 1-338 Y114A): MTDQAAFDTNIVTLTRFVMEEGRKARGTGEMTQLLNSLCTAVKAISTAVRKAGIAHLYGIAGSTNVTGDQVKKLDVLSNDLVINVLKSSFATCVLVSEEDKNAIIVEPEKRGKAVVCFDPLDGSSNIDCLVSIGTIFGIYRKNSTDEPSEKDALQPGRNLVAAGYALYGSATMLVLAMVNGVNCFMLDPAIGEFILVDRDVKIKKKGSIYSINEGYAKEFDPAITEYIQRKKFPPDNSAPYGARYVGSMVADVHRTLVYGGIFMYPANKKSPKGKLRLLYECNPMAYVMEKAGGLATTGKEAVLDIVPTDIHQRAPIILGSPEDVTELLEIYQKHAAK
Kind of assay: Malachite Green kinetic assay, Y113A mutant. It counts as biochemical. Conditions: for IC50: FBP substrate 10 to 50 µM. The method, then: (§1) For the kinetic assay, a standard curve was obtained from an ammonium molybdate Malachite Green inorganic phosphate assay (OD660 nm). The purified FBPase protein was dialyzed ×3 in 50 mM Tris buffer at pH 7.5 at 4°C. For enzyme concentration, absorbency values were recorded for all five mutant proteins using spectrophotometer readings at OD280 nm. To quantitate enzyme concentration, the enzymes were calculated based on the quantity of micrograms per microliter (µg/µl) present. Final concentration of WT and mutant enzymes was between 2.5 and 5.0 µg/µl. Using a colorimetric assay as described below, specific activity (SA) was determined. At last, all kinetic and binding assays described below were performed in 50 mM Tris pH 7.5.
(§2) Kinetic assays were performed for WT and mutant enzymes to identify functional differences between the WT enzyme and the mutants. […] Readings recorded at OD660 nm for each enzyme were applied to the standard curve equation. Micromoles of inorganic phosphate were calculated to determine the SA of mutant enzymes.
(§3) For each clone, the kinetic assay was performed in duplicates of triplicates. Malachite Geen was used to detect inorganic phosphate. Two separate clones were processed independently of the same mutant. All kinetic data were fit to symmetric sigmoidal curve using Origin software based on methods previously described [[27–29]]. More specifically, for kinetic parameters established via curve fitting (shown in Tables 1–3; and in Figure 5A,B), the equation y = d + (a − d)/1 + (x/c)^b was used where ‘x’ is represented by apparent Michelis constant (Km) when y = Vmax. […] P-values were significant at <0.001 and represent a comparison with the WT enzyme.

For assay [1], the target named is T2, pig kidney FBPase Y164A (Sus scrofa, UniProt P00636, Y165A).
T2 construct: His6 (C); made in house; host or cells: Escherichia coli BL21 (DE3)
T2 sequence (P00636 1-338 Y165A): T1 sequence (P00636 1-338 Y114A) with A114Y, Y165A
Kind of assay: Malachite Green kinetic assay, Y164A mutant. In kind it is biochemical. Conditions: enzyme Y164A; for IC50: FBP substrate 10 to 50 µM. The method, then: as §1, §2, §3

The target in assay [2] is T3, pig kidney FBPase M177A (Sus scrofa, UniProt P00636, M178A).
T3 construct: His6 (C); made in house; host or cells: Escherichia coli BL21 (DE3)
T3 sequence (P00636 1-338 M178A): T1 sequence (P00636 1-338 Y114A) with A114Y, M178A
Kind of assay: Malachite Green kinetic assay, M177A mutant. In kind it is biochemical. The conditions noted are these: for IC50: FBP substrate 10 to 50 µM. The method, then: as §1, §2, §3

Assay [3] concerns the target T2, pig kidney FBPase Y164A. In words: Differential scanning fluorimetry, Y164A mutant. In kind it is binding. Conditions: enzyme Y164A. Here is the method:
(§4) Differential scanning fluorimetry (DSF) assays were designed and implemented to run on WT and each mutant for the purpose of determining relative stabilities by melting point, and to detect structural changes in the enzymes upon ligand binding. Thermal shift assays were performed with a Light Cycler 96 System Real-Time PCR machine (Roche) using Sypro-Orange dye (Invitrogen) and thermal ramping (0.25°C per min between 20 and 85°C). […] Data were processed using the Boltzmann equation to generate sigmoidal denaturation curves, and average Tm/ΔTm values were calculated as previously described using GraphPad Prism software package.
Background: In DSF a fluorescence change marks the thermal transition of the protein.

For assay [4], the target named is T3, pig kidney FBPase M177A. Kind of assay: Differential scanning fluorimetry, M177A mutant. Conditions: enzyme M177A. In kind it is binding. The method, then: as §4
In the next assay the target is T4, pig kidney FBPase L56A (Sus scrofa, UniProt P00636, L57A).
T4 construct: His6 (C); made in house; host or cells: Escherichia coli BL21 (DE3)
T4 sequence (P00636 1-338 L57A): T1 sequence (P00636 1-338 Y114A) with L57A, A114Y
In words: Differential scanning fluorimetry, L56A mutant. The conditions noted are these: enzyme L56A. It counts as binding. The method, then:
as §4

Positions count from the first letter of the chain named.

Consider `Nc1ncnc2c1ncn2[C@@H]1O[C@H](COP(=O)(O)O)[C@@H](O)[C@H]1O` [AMP], for which the IC50 (usually the point on the concentration scale where inhibition reaches its midpoint) against pig kidney FBPase Y113A (enzyme Y113A_1) is 48.6 µM; at pig kidney FBPase Y113A (enzyme Y113A_2), 55.3 µM; against pig kidney FBPase Y164A [1], 2500 nM; at pig kidney FBPase M177A [2] (enzyme M177A_1), 3500 nM; against pig kidney FBPase M177A [2] (enzyme M177A_2), 3900 nM. Moreover, the “AMP Hill coefficient” value at pig kidney FBPase Y164A [1] is given as 2.8 (± 0.2); on pig kidney FBPase M177A [2] (enzyme M177A_1), 2.6 (± 0.2); at pig kidney FBPase M177A [2] (enzyme M177A_2 (second clone)), 2.8 (± 0.1). The “melting point of enzyme with AMP (100 µM)” value is 55.0 (± 2.25) °C at pig kidney FBPase Y164A [3] (AMP 100 µM), 54.1 (± 1.25) °C on pig kidney FBPase M177A [4] (AMP 100 µM) and 57.0 (± 2.75) °C on pig kidney FBPase L56A (AMP 100 µM).

On to `O=P(O)(O)OC[C@H]1O[C@@](CO)(OP(=O)(O)O)[C@@H](O)[C@@H]1O` [F2,6-BP, fructose-2,6-bisphosphate], for which the Ki (as a rule, the dissociation constant of the complex between target and ligand, obtained from inhibition or displacement) amounted to 250 nM on pig kidney FBPase Y113A (enzyme Y113A), 150 nM at pig kidney FBPase Y164A [1] and 170 nM at pig kidney FBPase M177A [2] (enzyme M177A). For the same compound, the IC50 at pig kidney FBPase Y113A (enzyme Y113A_1) is 1.8 µM; at pig kidney FBPase Y113A (enzyme Y113A_2), 1.7 µM; against pig kidney FBPase Y164A [1], 950 nM; at pig kidney FBPase M177A [2] (enzyme M177A_1), 750 nM; at pig kidney FBPase M177A [2] (enzyme M177A_2), 620 nM.

In the case of `[Mg+2]` [Mg^2+, magnesium], the Ka was 0.48 (± 0.16) mM at pig kidney FBPase Y113A (enzyme Y113A, association (binding) constant from saturation curve); 0.50 (± 0.15) mM at pig kidney FBPase Y164A [1] (association (binding) constant from saturation curve); 0.49 (± 0.18) mM on pig kidney FBPase M177A [2] (enzyme M177A, association (binding) constant from saturation curve). Further, the Hill coefficient (commonly the slope factor of the fitted curve) is recorded as 2.00 (± 0.19) on pig kidney FBPase Y113A (enzyme Y113A, for magnesium); 2.15 (± 0.12) at pig kidney FBPase Y164A [1] (for magnesium); 2.05 (± 0.12) at pig kidney FBPase M177A [2] (enzyme M177A, for magnesium). Moreover, the “melting point of enzyme with Mg^2+ ([…])” value on pig kidney FBPase Y164A [3] (Mg^2+ […]) was 55.2 (± 1.75) °C; at pig kidney FBPase M177A [4] (Mg^2+ […]), 55.8 (± 1.75) °C; at pig kidney FBPase L56A (Mg^2+ […]) it was 56.0 (± 2.50) °C.

Source of the values: paper PMC6386767, “Characterization of recombinant fructose-1,6-bisphosphatase gene mutations: evidence of inhibition/activation of FBPase protein by gene mutation” (Bioscience Reports, 2019).
